Literature values, collected in US20190083649A1, “CROSSLINKED POLYMER NANO-ASSEMBLIES AND USES THEREOF” (University of Massachusetts, priority 2017, published 2019).

- pKa of the protonated form of the amine: around 6.2
SMILES: C=C(C)C(=O)OCCN(C(C)C)C(C)C [DPA, 2-(diisopropylamino)ethyl methacrylate]
